# Assay results: ChEMBL document CHEMBL4842376, “Design, synthesis and biological evaluation of novel hybrids targeting mTOR and HDACs for potential treatment of hepatocellular carcinoma” (Eur J Med Chem, 2021)
# What was measured:
# Assay type in all cases: functional, cell-based
# MDA-MB-231 = assay: cells; settings: Homo sapiens, MDA-MB-231, 72 h
# Description: Antiproliferative activity against human MDA-MB-231 cells assessed as inhibition of cell growth measured after 72 hrs by MTT assay
# CNE-2 = assay: cells; settings: Homo sapiens, CNE-2, 72 h
# Description: Antiproliferative activity against human CNE-2 cells assessed as inhibition of cell growth measured after 72 hrs by MTT assay
# HCT-116 = assay: cells; settings: Homo sapiens, HCT-116, 72 h
# Description: Antiproliferative activity against human HCT-116 cells assessed as inhibition of cell growth measured after 72 hrs by MTT assay
# PLC-PRF-5 = assay: Antiproliferative activity against human PLC-PRF-5 cells assessed as inhibition of cell growth measured after 72 hrs by MTT assay; settings: PLC-PRF-5, 72 h
# MCF7 = assay: cells; settings: Homo sapiens, MCF7, 72 h
# Description: Antiproliferative activity against human MCF7 cells assessed as inhibition of cell growth measured after 72 hrs by MTT assay
# SK-HEP1 = assay: cells; settings: Homo sapiens, SK-HEP1, 72 h
# Description: Antiproliferative activity against human SK-HEP1 cells assessed as inhibition of cell growth measured after 72 hrs by MTT assay
# Huh-7 = assay: cells; settings: Homo sapiens, Huh-7, 72 h
# Description: Antiproliferative activity against human Huh-7 cells assessed as inhibition of cell growth measured after 72 hrs by MTT assay
# HepG2 = assay: Antiproliferative activity against human HepG2 cells assessed as inhibition of cell growth measured after 72 hrs by MTT assay; settings: HepG2, 72 h
# HeLa = assay: cells; settings: Homo sapiens, 72 h
# Description: Antiproliferative activity against human HeLa cells assessed as inhibition of cell growth measured after 72 hrs by MTT assay
# Hep 3B2 = assay: cells; settings: Homo sapiens, Hep3B, 72 h
# Description: Antiproliferative activity against human Hep3B cells assessed as inhibition of cell growth measured after 72 hrs by MTT assay
# A549 = assay: cells; settings: Homo sapiens, A549, 72 h
# Description: Antiproliferative activity against human A549 cells assessed as inhibition of cell growth measured after 72 hrs by MTT assay
IC50 (MDA-MB-231),IC50 (CNE-2),IC50 (HCT-116),IC50 (MCF7),IC50 (SK-HEP1),IC50 (Huh-7),IC50 (HepG2),IC50 (HeLa),IC50 (Hep 3B2),IC50 (A549),SMILES,IC50 (PLC-PRF-5)
19.5 µM,> 50 µM,19.6 µM,> 50 µM,,,> 50 µM,> 150 µM,,> 100 µM,Nc1nc2cc(-c3nn(CCCC(=O)NO)c4ncnc(N)c34)ccc2o1,
6.31 µM,12.2 µM,11.4 µM,> 100 µM,,,> 150 µM,> 150 µM,,27.7 µM,Nc1nc2cc(-c3nn(CC(=O)NO)c4ncnc(N)c34)ccc2o1,
> 150 µM,> 150 µM,> 150 µM,> 150 µM,,,> 150 µM,,,> 150 µM,Nc1ncnc2c1c(-c1cnc3[nH]ccc3c1)nn2CC(=O)NO,
> 50 µM,> 150 µM,> 100 µM,> 100 µM,,,> 150 µM,> 150 µM,,> 150 µM,Nc1nc2cc(-c3nn(CCC(=O)NO)c4ncnc(N)c34)ccc2o1,

# Second part, the compound before the results:
SMILES,IC50 (MDA-MB-231),IC50 (CNE-2),IC50 (HCT-116),IC50 (MCF7),IC50 (SK-HEP1),IC50 (Huh-7),IC50 (HepG2),IC50 (HeLa),IC50 (Hep 3B2),IC50 (A549),IC50 (PLC-PRF-5)
Nc1ncnc2c1c(-c1cnc3[nH]ccc3c1)nn2CCCCCC(=O)NO,> 100 µM,> 50 µM,63.7 µM,> 150 µM,> 150 µM,> 100 µM,12.9 µM,> 150 µM,> 50 µM,> 150 µM,> 150 µM
Nc1ncnc2c1c(-c1cnc3[nH]ccc3c1)nn2CCCCC(=O)NO,> 50 µM,> 150 µM,> 150 µM,> 150 µM,,,36.6 µM,> 150 µM,,> 150 µM,
Nc1ncnc2c1c(-c1cnc3[nH]ccc3c1)nn2CCCC(=O)NO,> 150 µM,> 150 µM,> 150 µM,> 150 µM,,,> 50 µM,,,> 150 µM,
Nc1ncnc2c1c(-c1cnc3[nH]ccc3c1)nn2CCC(=O)NO,> 150 µM,> 150 µM,> 150 µM,> 150 µM,,,> 150 µM,,,> 150 µM,
